One data set addresses NDM-1 (Klebsiella pneumoniae, UniProt C7C422). In words: biochemical. Format: biochemical. The following applies: CCF2-FA fluorescence assay, 2 hours at 25° C. In short, it runs like this: (§1)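 Buffer 100 mM KH2PO4 pH 7, 0.005% Tween-20, 10 μM ZnSO4. NDM-1 1 pM, IMP-1 2 pM, VIM-1 30 pM final; CCF2-FA 1.25 μM. Cpd 20–0.00063 μM, 2 h, 25° C. Ex 405/Em 460 nm; IC50 via 4-parameter curve.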

The next data set concerns the target IMP-1 (Serratia marcescens, UniProt P52699). In words: biochemical. The following applies: CCF2-FA fluorescence assay, 2 hours at 25° C.; read-out: IMP1 IC50. In short, it runs like this: as §1
The next data set concerns the target VIM-1 (Pseudomonas aeruginosa (strain ATCC 15692 / DSM 22644 / CIP 104116 / JCM 14847 / LMG 12228 / 1C / PRS 101 / PAO1), UniProt A0A0F7KYQ8). The data set is described as follows: biochemical. The following applies: CCF2-FA fluorescence assay, 2 hours at 25° C.; read-out: VIM1 IC50. In short, it runs like this:
as §1

In another data set the target is VIM-2 (Escherichia coli, UniProt Q5U7L7). In words: biochemical. The following applies: CCF2-FA fluorescence assay; read-out: VIM2 IC50.
Data set [1] deals with Escherichia coli expressing NDM-1 (CLB30016). Format: cell-based. The following applies: with imipenem 1 μg/ml; 95% inhibition of bacterial growth. In short, it runs like this:
(§2)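 Colonies from sheep-blood agar plates are resuspended in saline, then diluted 1:100 in 1.1× CAMHB. Bacteria receive imipenem (1 μg/ml) and test compound, then incubate 22–24 h at 35 °C. Potentiation is reported as MITC95 from absorbance.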

Data set [2] concerns Klebsiella pneumoniae expressing VIM-1 (IHMA599644). Format: cell-based. The following applies: with imipenem 1 μg/ml; 95% inhibition of bacterial growth. In a few lines:
as §2

Data set [3] has as its system Serratia marcescens expressing IMP-1 (CL5741). Format: cell-based. The following applies: with imipenem 1 μg/ml; 95% inhibition of bacterial growth. In short, it runs like this: as §2
For data set [4], the system named is P. aeruginosa MB9798 (efflux+, IMP-1 plasmid). To be noted: for MB9798 MITC95 P. aeruginosa uM Efflux WT: efflux + (MB9798) strain, imipenem at 2 μg/mL, in the presence of a class A, C, D serine β-lactamase inhibitor closely related to relebactam; for Efflux ratio: fold difference between efflux+ (MB9798) and efflux− (MB9799) strains. In short, it runs like this: (§3)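 PAO1-derived isogenic pair (oprD+, inducible AmpC), efflux+ MB5919 or efflux− MB5890 parent, carrying an electroporated IMP-1 plasmid from a clinical isolate. Microbroth MIC with fixed imipenem and/or ceftazidime (usually CLSI breakpoint) plus fixed class A/C inhibitor; MBL inhibitor serially titrated, concentration restoring susceptibility recorded.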

For data set [5], the system named is P. aeruginosa MB9799 (efflux-, IMP-1 plasmid). Format: cell-based, Pseudomonas aeruginosa. The following applies: efflux − (MB9799) strain; imipenem at 2 μg/mL; in the presence of a class A, C, D serine β-lactamase inhibitor closely related to relebactam. In short, it runs like this:
as §3

Sequence of NDM-1 (C7C422 whole entry, looked up, species assumed): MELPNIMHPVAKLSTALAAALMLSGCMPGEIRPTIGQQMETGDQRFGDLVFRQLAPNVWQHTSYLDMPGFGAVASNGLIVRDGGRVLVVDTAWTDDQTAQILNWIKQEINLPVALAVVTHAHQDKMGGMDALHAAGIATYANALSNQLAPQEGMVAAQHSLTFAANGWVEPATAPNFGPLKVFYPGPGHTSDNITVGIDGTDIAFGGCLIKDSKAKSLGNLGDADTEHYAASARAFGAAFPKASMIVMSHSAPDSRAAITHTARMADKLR
Sequence of IMP-1 (P52699 whole entry, looked up, species assumed): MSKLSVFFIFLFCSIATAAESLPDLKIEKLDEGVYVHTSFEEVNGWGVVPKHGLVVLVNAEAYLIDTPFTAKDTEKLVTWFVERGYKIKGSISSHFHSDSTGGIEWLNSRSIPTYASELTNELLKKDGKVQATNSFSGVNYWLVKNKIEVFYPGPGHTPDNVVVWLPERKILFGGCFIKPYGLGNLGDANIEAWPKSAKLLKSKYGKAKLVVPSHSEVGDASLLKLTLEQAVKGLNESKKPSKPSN

As to `NC[C@@H]1CCCN(c2ccc(S(=O)(=O)N[C@@H]3CCNC3)c(S(N)(=O)=O)c2-c2nnn[nH]2)C1` [Example 78, 4-[(3S)-3-(aminomethyl)piperidin-1-yl]-N1-[(3R)-pyrrolidin-3-yl]-3-(1H-tetrazol-5-yl)benzene-1,2-disulfonamide], the IC50 against NDM-1 stood at 5.4 nM; at IMP-1 it was 35.4 nM; on VIM-1 it was 0.66 nM; on VIM-2 it was 3.01 nM. Besides, the “CLB30016 E. coli MITC95 NDM” value in [1] was 0.39 µM. The “IHMA599644 K. pneumoniae MITC95 VIM” value in data set [2] was 1.56 µM. The “CL5741 S. marcescens MITC95 IMP” value in [3] is 1.56 µM. In addition, the “MB9798 MITC95 P. aeruginosa uM Efflux WT” value in data set [4] amounted to 6.25 µM. For the same molecule, the Efflux ratio in data set [4] stood at 8.00. In addition, in data set [5], the “MB9799 MITC95 P. aeruginosa uM Efflux Mutant” value came out at 0.78 µM.
Turning to `NS(=O)(=O)c1c(S(=O)(=O)N[C@@H]2CCNC2)ccc(N2CCNCC2)c1-c1nnn[nH]1` [Example 79, 4-piperazin-1-yl-N1-[(3R)-pyrrolidin-3-yl]-3-(1H-tetrazol-5-yl)benzene-1,2-disulfonamide], the IC50 turned out to be 9.35 nM on NDM-1, 26.6 nM at IMP-1, 8.6 nM at VIM-1 and 36.4 nM at VIM-2. Also, the “CLB30016 E. coli MITC95 NDM” value in data set [1] was found to be 0.39 µM. In data set [2], the “IHMA599644 K. pneumoniae MITC95 VIM” value amounted to 3.13 µM. Further, in [3], the “CL5741 S. marcescens MITC95 IMP” value stood at 0.78 µM. The “MB9798 MITC95 P. aeruginosa uM Efflux WT” value in data set [4] was determined as 3.13 µM. Besides, in data set [4], the Efflux ratio amounted to 2.00. In data set [5], the “MB9799 MITC95 P. aeruginosa uM Efflux Mutant” value was found to be 1.56 µM.
As for `NS(=O)(=O)c1c(S(=O)(=O)N[C@@H]2CCNC2)ccc(N2CCC(S(N)(=O)=O)CC2)c1-c1nnn[nH]1` [Example 80, N1-[(3R)-pyrrolidin-3-yl]-4-(4-sulfamoylpiperidin-1-yl)-3-(1H-tetrazol-5-yl)benzene-1,2-disulfonamide], the IC50 at NDM-1 was determined as 0.3 nM; at IMP-1, 0.43 nM; on VIM-1, 0.13 nM; at VIM-2, 0.66 nM. Besides, in data set [1], the “CLB30016 E. coli MITC95 NDM” value turned out to be 1.56 µM. In addition, the “IHMA599644 K. pneumoniae MITC95 VIM” value in [2] is 3.13 µM. The “CL5741 S. marcescens MITC95 IMP” value in [3] was 0.78 µM. The “MB9798 MITC95 P. aeruginosa uM Efflux WT” value in data set [4] amounted to 1.56 µM. For the same molecule, the Efflux ratio in data set [4] is 1.00. Further, the “MB9799 MITC95 P. aeruginosa uM Efflux Mutant” value in data set [5] stood at 1.56 µM.
For `NS(=O)(=O)c1c(S(=O)(=O)N[C@@H]2CCNC2)ccc(N2CCC(CCO)C2)c1-c1nnn[nH]1` (stereo partly drawn) [Example 81, 4-[3-(2-hydroxyethyl)pyrrolidin-1-yl]-N1-[(3R)-pyrrolidin-3-yl]-3-(1H-tetrazol-5-yl)benzene-1,2-disulfonamide], the IC50 stood at 0.64 nM on NDM-1, 0.62 nM on IMP-1, 0.51 nM on VIM-1 and 1 nM at VIM-2. Moreover, the “CLB30016 E. coli MITC95 NDM” value in [1] was 3.13 µM. The “IHMA599644 K. pneumoniae MITC95 VIM” value in [2] is 6.25 µM. Further, the “CL5741 S. marcescens MITC95 IMP” value in data set [3] turned out to be 3.13 µM. In addition, in data set [4], the “MB9798 MITC95 P. aeruginosa uM Efflux WT” value was 6.25 µM. Besides, the Efflux ratio in data set [4] was 2.00. Also, the “MB9799 MITC95 P. aeruginosa uM Efflux Mutant” value in data set [5] is 3.13 µM.
Regarding `NC[C@H]1CCCN(c2ccc(S(=O)(=O)N[C@@H]3CCNC3)c(S(N)(=O)=O)c2-c2nnn[nH]2)C1` [Example 82, 4-[(3R)-3-(aminomethyl)piperidin-1-yl]-N1-[(3R)-pyrrolidin-3-yl]-3-(1H-tetrazol-5-yl)benzene-1,2-disulfonamide], the 50% inhibitory concentration (IC50) at NDM-1 is 42.9 nM; on IMP-1, 45.6 nM; on VIM-1, 0.9 nM; at VIM-2, 9.33 nM. For the same molecule, in [1], the “CLB30016 E. coli MITC95 NDM” value was determined as 0.78 µM. Further, the “IHMA599644 K. pneumoniae MITC95 VIM” value in data set [2] is 0.78 µM. Besides, in [3], the “CL5741 S. marcescens MITC95 IMP” value is 0.78 µM. In addition, the “MB9798 MITC95 P. aeruginosa uM Efflux WT” value in data set [4] worked out at 6.25 µM. In addition, in data set [4], the Efflux ratio was determined as 2.00. For the same molecule, in [5], the “MB9799 MITC95 P. aeruginosa uM Efflux Mutant” value was determined as 3.13 µM.
With `CC(=O)N[C@H]1CCN(c2ccc(S(=O)(=O)N[C@@H]3CCNC3)c(S(N)(=O)=O)c2-c2nnn[nH]2)C1` [Example 83, N-[(3S)-1-{4-[(3R)-pyrrolidin-3-ylsulfamoyl]-3-sulfamoyl-2-(1H-tetrazol-5-yl)phenyl}pyrrolidin-3-yl]acetamide], the IC50 against NDM-1 amounted to 4.98 nM; on IMP-1, 15.9 nM; at VIM-1, 2.11 nM; on VIM-2, 2.82 nM. Moreover, the “CLB30016 E. coli MITC95 NDM” value in [1] came to 6.25 µM. Also, the “IHMA599644 K. pneumoniae MITC95 VIM” value in data set [2] came out at 12.50 µM. Also, the “CL5741 S. marcescens MITC95 IMP” value in data set [3] worked out at 3.13 µM. Also, the “MB9798 MITC95 P. aeruginosa uM Efflux WT” value in data set [4] is 12.50 µM. The Efflux ratio in data set [4] turned out to be 4.00. Moreover, in data set [5], the “MB9799 MITC95 P. aeruginosa uM Efflux Mutant” value was 3.13 µM.
In the case of `NC1(CO)CCN(c2ccc(S(=O)(=O)N[C@@H]3CCNC3)c(S(N)(=O)=O)c2-c2nnn[nH]2)C1` (stereo partly drawn) [Example 84, 4-[3-amino-3-(hydroxymethyl)pyrrolidin-1-yl]-N1-[(3R)-pyrrolidin-3-yl]-3-(1H-tetrazol-5-yl)benzene-1,2-disulfonamide], the half-inhibitory concentration (IC50) came out at 19.7 nM against NDM-1, 33 nM on IMP-1, 7.27 nM on VIM-1 and 46.9 nM at VIM-2. The “CLB30016 E. coli MITC95 NDM” value in data set [1] was 0.78 µM. Further, in data set [2], the “IHMA599644 K. pneumoniae MITC95 VIM” value is 1.56 µM. In addition, in data set [3], the “CL5741 S. marcescens MITC95 IMP” value turned out to be 1.56 µM. The “MB9798 MITC95 P. aeruginosa uM Efflux WT” value in data set [4] came to 6.25 µM. Further, the Efflux ratio in data set [4] was 4.00. In [5], the “MB9799 MITC95 P. aeruginosa uM Efflux Mutant” value stood at 1.56 µM.
With `NCC1(O)CCN(c2ccc(S(=O)(=O)N[C@@H]3CCNC3)c(S(N)(=O)=O)c2-c2nnn[nH]2)CC1` [Example 85, 4-[4-(aminomethyl)-4-hydroxypiperidin-1-yl]-N1-[(3R)-pyrrolidin-3-yl]-3-(1H-tetrazol-5-yl)benzene-1,2-disulfonamide], the half-maximal inhibitory concentration (IC50) against NDM-1 worked out at 3.15 nM; on IMP-1, 9.94 nM; at VIM-1, 2.13 nM; on VIM-2, 23.7 nM. Besides, the “CLB30016 E. coli MITC95 NDM” value in [1] is 0.78 µM. Also, in [2], the “IHMA599644 K. pneumoniae MITC95 VIM” value came out at 1.56 µM. For the same molecule, the “CL5741 S. marcescens MITC95 IMP” value in [3] turned out to be 1.56 µM. Moreover, in data set [4], the “MB9798 MITC95 P. aeruginosa uM Efflux WT” value turned out to be 1.56 µM. Further, the Efflux ratio in data set [4] amounted to 2.00. The “MB9799 MITC95 P. aeruginosa uM Efflux Mutant” value in data set [5] came out at 0.78 µM.
`N[C@@H]1CCCN(c2ccc(S(=O)(=O)N[C@@H]3CCNC3)c(S(N)(=O)=O)c2-c2nnn[nH]2)C1` [Example 86, 4-[(3R)-3-aminopiperidin-1-yl]-N1-[(3R)-pyrrolidin-3-yl]-3-(1H-tetrazol-5-yl)benzene-1,2-disulfonamide]: the IC50 against NDM-1 was 1.37 nM; on IMP-1, 58.8 nM; on VIM-1, 3.83 nM; at VIM-2, 14 nM. Besides, the “CLB30016 E. coli MITC95 NDM” value in [1] amounted to 0.39 µM. In addition, the “IHMA599644 K. pneumoniae MITC95 VIM” value in data set [2] amounted to 1.56 µM. Further, the “CL5741 S. marcescens MITC95 IMP” value in data set [3] stood at 1.56 µM. The “MB9798 MITC95 P. aeruginosa uM Efflux WT” value in data set [4] amounted to 12.50 µM. For the same molecule, the Efflux ratio in data set [4] came out at 8.00. For the same molecule, the “MB9799 MITC95 P. aeruginosa uM Efflux Mutant” value in [5] was found to be 1.56 µM.

Values taken from patent US11207312B2, “Metallo-beta-lactamase inhibitors and methods of use thereof” (priority 2017, dated 2021).
